Experimental data: patent US20100144858A1, “Treatment of movement disorders with a metabotropic glutamate 4 receptor positive allosteric modulator” (priority 2003, published 2010)
“Also recorded” adds a separate entry of the source. Where two headings read alike, the source gives them in different places.

Key:
[1] = target: T1, human mGluR4 (Homo sapiens, UniProt Q14833); assay: FLIPR Ca2+ flux assay in mGluR4 CHO cells
Method: (§1) Cells expressing mGluR2, mGluR4, mGluR7 and mGluR8 were coexpressed with Gα16, Gαqi5, Gα15 and Gα15, respectively. Cells were evaluated using a fluorometric imaging plate reader (FLIPR, Molecular Devices, Sunnyvale, Calif.), to measure their ability to mobilize Ca^2+ in response to appropriate agonists (i.e., glutamate and L-AP4).
(§2) CHO or HEK cells expressing mGluR receptors (mGluR CHO or HEK cells) were plated (50,000-70,000 cells/well) in clear-bottomed, poly-D-lysine-coated plates (Becton-Dickinson) in glutamate/glutamine-free medium. The plated cells were grown overnight at 37° C. in the presence of 6% CO2. The following day, the cells were washed with 3×100 μl assay buffer (Hanks Balanced Salt Solution containing 20 mM HEPES, 2.5 mM probenecid, and 0.1% bovine serum albumin) using a Skatron Embla cell washer. The cells were incubated with 1 μM Fluo-4AM (Molecular Probes, Eugene, Oreg.) for 1 h at 37° C. and 6% CO2. The extracellular dye was removed by washing as described above. […] Ca^2+ flux was measured using a FLIPR.

[2] = tested on: reserpine-induced akinesia; assay: Reserpine-induced akinesia model of Parkinson's disease; type: in vivo; details: rat, 75 nmol icv, reserpine 5 mg/kg sc, beam breaks/30 min
Method: Behavior: Third ventricle cannulated male Sprague-Dawley rats (250-350) were purchased from Taconic Farms (Germantown, N.Y.) with guide cannula implanted such that subsequent placement of an injection cannula allowed for infusion into the third ventricle. These rats were used for intracerebral ventricular (icy) injection of test compounds within one week of arrival to the testing facility. All experiments were carried out during the light cycle (6.00-18.00).
Rats were injected with reserpine (5 mg/kg sc, dissolved in 1% acetic acid) and kept in their home cages for 1.5-2 hr post-injection. Activity was measured by placing rats in photocell activity cages (Hamilton-Kinder, Inc., Poway, Calif.) equipped with 16×16 infrared beams. […] Five min following the injection of test compound or vehicle, motor activity was recorded for an additional 30 min for each rat. Motor activity (cumulative beam breaks/30-min period) was recorded both pre- and post-drug treatment for each rat. […] Post hoc comparisons were performed using the Bonferroni test. Statistical significance was achieved when p<0.05. Data are expressed as mean +/− one SEM.

[3] = tested on: striato-pallidal synapse; assay: Brain slice whole-cell patch-clamp, evoked IPSCs at striato-pallidal synapse; set-up: species or system rat; details: for effect on striato-pallidal transmission, compound alone: L-AP4 1 μM, PHCCC 30 μM, rat brain slice
Method: Animals: All studies were performed in an AAALAC accredited facility in accordance with all applicable guidelines regarding the care and use of animals. Animals were group housed with access to food and water ad libitum. Slice Preparation: All experiments were performed on slices from 26 to 30-d-old Sprague Dawley rats (Taconic, Germantown, N.Y.). Animals were killed by decapitation and brains were rapidly removed and submerged in an ice-cold solution containing (in mM): choline chloride 126, KCl 2.5, NaH2PO4 1.2, MgCl2 1.3, MgSO4 8, glucose 10, and NaHCO3 26, equilibrated with 95% O2/5% CO2 (11). The brain was glued to the chuck of a vibrating blade microtome (Leics Microsystems, Nussloch GmbH) and parasagittal slices (300 μm thick) were obtained. Slices were immediately transferred to a 500 ml holding chamber containing artificial cerebrospinal fluid (in mM): NaCl 124, KCl 2.5, MgSO4 1.3, NaH2PO4 1.0, CaCl2 2, glucose 20, and NaHCO3 26, equilibrated with 95% O2/5% CO2 that was maintained at 32° C. After 20-min at 32° C., the holding chamber was allowed to gradually decrease to room temperature. In all experiments 5 μM glutathione, 500 μM pyruvate, and 250 μM kynurenic acid were included in the choline chloride buffer and in the holding chamber ACSF. Electrophysiology: Whole-cell patch-clamp recordings were obtained (Marino et al., (2001) J. Neurosci. 21: 7001-7012. During recording, slices were maintained fully submerged on the stage of a 1 ml brain slice chamber at 32° C. and perfused continuously with equilibrated ACSF (2-3 ml/min). Neurons were visualized using a differential interference contrast microscope and an infrared video system. Patch electrodes were pulled from borosilicate glass on a two-stage puller and had resistances in the range of 3-7 MΩ when filled with the following internal solution: (in mM): potassium gluconate 125, NaCl 4, NaH2PO4 6, CaCl2 1, MgSO4 2, BAPTA-tetrapotassium salt 10, HEPES 10, Mg-ATP 2, Na2-GTP 0.3, pH=7.4. All recordings were done using HEKA EPC9 patch clamp amplifiers (HEKA Elektronik, Lambrecht/Pfalz, Germany). […]

[4] = target: T2, rat mGluR4 (Rattus norvegicus, UniProt P31423); assay: FLIPR Ca2+ flux assay, rat mGluR4; type: cell-based; details: n=3, read-out: EC50 for L-AP4 activation of rat mGluR4
T2 construct: expressed in transfected cells; host or cells: CHO or HEK cells, co-expressing Gαqi5
T2 sequence (P31423 33-912): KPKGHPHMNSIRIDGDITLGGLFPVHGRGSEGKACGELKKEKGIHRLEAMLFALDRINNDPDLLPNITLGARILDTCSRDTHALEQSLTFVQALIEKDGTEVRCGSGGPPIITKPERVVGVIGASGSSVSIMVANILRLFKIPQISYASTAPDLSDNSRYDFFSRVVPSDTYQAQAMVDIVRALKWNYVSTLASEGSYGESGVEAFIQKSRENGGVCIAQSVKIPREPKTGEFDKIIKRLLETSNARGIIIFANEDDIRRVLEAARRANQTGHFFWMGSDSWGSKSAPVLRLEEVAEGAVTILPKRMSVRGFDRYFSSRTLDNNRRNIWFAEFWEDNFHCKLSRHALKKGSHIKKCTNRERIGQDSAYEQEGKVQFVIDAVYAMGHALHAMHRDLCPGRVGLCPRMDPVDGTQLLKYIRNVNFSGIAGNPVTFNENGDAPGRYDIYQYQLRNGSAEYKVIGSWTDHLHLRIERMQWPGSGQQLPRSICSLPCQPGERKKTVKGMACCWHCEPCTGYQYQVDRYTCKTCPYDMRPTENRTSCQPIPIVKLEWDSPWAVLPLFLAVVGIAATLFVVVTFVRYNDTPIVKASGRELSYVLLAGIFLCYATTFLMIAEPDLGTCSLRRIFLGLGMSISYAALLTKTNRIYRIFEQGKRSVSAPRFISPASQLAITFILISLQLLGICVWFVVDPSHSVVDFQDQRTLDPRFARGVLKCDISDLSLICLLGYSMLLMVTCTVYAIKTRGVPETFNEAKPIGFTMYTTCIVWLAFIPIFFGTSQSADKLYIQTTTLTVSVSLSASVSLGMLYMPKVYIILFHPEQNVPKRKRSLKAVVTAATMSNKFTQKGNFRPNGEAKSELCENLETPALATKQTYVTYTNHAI

[5] = target: T1, human mGluR4; assay: FLIPR Ca2+ flux assay, human mGluR4; type: cell-based; set-up: expressed in transfected cells; host or cells: CHO or HEK cells, co-expressing Gαqi5; details: n=3, read-out: EC50 for L-AP4 activation of human mGluR4
Target sequence in this assay (Q14833 33-912): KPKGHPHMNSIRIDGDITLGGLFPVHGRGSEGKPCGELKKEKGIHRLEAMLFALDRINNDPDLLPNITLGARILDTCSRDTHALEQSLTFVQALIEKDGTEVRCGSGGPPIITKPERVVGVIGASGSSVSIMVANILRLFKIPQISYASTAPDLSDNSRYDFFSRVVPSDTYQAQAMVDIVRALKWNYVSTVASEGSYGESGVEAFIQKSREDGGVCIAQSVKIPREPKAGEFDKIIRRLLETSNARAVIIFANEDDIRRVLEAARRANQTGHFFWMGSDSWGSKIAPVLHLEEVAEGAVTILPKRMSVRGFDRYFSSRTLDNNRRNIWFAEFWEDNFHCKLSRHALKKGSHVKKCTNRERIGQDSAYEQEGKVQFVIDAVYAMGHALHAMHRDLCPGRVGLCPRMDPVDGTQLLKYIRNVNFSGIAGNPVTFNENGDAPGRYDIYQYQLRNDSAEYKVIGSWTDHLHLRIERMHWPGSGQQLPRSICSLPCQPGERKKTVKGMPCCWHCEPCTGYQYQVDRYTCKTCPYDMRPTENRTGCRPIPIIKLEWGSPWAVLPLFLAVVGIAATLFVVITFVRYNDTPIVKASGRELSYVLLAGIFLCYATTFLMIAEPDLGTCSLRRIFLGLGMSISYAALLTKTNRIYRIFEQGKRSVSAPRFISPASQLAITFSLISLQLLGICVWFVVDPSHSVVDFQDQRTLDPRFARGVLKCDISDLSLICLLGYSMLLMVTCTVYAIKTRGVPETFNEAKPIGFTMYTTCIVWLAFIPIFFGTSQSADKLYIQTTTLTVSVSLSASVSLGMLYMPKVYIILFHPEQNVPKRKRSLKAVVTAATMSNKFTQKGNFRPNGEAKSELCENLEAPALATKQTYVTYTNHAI
Method: as §1, §2

[6] = tested on: mGluR4; assay: FLIPR Ca2+ flux assay in mGluR4 CHO cells; details: in the presence of 10 μM PHCCC
Method: as §1, §2

[7] = target: T3, mGluR5a (Homo sapiens, UniProt P41594); assay: FLIPR Ca2+ flux assay, mGluR5a antagonism; type: cell-based; details: 10 μM
T3 construct: expressed in transfected cells; host or cells: CHO or HEK cells

[8] = tested on: lateral perforant path-dentate gyrus (LPP-DG) synapse (mGluR8); assay: Hippocampal field recordings (fEPSPs), LPP-DG synapse; set-up: species or system rat; details: submaximal L-AP4; fEPSP slope
[9] = target: T4, mGluR1b (Homo sapiens, UniProt Q13255); assay: FLIPR Ca2+ flux assay, mGluR1b antagonism; type: cell-based; details: 10 μM
T4 construct: expressed in transfected cells; host or cells: CHO or HEK cells
T4 sequence (Q13255 19-906 isoform Q13255-2 limits assumed): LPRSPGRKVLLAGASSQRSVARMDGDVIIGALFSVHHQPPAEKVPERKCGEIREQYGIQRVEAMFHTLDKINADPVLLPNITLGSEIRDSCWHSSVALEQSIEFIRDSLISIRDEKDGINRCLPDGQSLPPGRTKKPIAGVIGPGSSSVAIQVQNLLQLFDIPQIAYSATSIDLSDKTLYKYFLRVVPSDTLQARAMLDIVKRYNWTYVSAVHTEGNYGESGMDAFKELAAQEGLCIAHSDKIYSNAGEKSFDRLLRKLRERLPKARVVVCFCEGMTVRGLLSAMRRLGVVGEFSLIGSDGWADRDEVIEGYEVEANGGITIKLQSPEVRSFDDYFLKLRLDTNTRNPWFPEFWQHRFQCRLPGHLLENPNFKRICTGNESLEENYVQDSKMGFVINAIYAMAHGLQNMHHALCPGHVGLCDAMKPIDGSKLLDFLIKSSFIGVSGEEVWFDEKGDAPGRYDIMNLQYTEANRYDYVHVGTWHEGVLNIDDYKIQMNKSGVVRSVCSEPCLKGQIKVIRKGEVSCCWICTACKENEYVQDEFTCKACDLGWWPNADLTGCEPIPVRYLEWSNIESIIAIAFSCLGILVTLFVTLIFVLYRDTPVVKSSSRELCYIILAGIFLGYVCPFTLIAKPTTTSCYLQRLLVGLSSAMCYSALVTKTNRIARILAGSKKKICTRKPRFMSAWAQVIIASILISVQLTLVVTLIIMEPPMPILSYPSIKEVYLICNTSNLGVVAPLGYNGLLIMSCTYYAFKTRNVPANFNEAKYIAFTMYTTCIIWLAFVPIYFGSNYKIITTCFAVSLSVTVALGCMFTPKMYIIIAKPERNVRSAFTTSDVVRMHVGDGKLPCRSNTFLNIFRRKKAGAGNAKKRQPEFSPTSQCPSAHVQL

[10] = target: T5, mGluR2 (Homo sapiens, UniProt Q14416); assay: FLIPR Ca2+ flux assay, mGluR2 antagonism; type: cell-based; details: 10 μM
T5 construct: expressed in transfected cells; host or cells: CHO or HEK cells, co-expressing Gα16
T5 sequence (Q14416 19-872): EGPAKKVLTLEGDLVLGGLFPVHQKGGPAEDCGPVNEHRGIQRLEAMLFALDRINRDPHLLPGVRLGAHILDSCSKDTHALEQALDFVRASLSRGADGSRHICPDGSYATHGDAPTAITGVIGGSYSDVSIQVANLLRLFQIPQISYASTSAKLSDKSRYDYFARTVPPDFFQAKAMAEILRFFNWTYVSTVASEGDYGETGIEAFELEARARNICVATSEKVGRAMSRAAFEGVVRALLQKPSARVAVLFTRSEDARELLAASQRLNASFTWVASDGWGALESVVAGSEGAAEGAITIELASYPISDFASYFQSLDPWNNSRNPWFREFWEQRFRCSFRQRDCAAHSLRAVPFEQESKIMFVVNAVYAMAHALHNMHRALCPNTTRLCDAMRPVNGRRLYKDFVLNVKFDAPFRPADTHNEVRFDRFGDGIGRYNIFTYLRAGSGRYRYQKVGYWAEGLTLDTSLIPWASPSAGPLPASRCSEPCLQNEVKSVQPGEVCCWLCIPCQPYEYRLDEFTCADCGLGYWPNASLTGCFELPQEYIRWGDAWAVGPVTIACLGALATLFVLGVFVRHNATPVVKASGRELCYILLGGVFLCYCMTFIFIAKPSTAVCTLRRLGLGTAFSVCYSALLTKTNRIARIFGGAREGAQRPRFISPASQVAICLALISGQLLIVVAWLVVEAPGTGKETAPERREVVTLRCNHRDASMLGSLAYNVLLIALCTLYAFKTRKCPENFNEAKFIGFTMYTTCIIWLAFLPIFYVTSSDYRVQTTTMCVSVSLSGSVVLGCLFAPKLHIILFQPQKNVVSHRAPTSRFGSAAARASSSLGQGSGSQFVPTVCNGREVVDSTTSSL

[11] = target: T6, mGluR8 (Homo sapiens, UniProt O00222); assay: FLIPR Ca2+ flux assay, mGluR8 antagonism; type: cell-based; details: 10 μM
T6 construct: expressed in transfected cells; host or cells: CHO or HEK cells, co-expressing Gα15
T6 sequence (O00222 34-908, species assumed): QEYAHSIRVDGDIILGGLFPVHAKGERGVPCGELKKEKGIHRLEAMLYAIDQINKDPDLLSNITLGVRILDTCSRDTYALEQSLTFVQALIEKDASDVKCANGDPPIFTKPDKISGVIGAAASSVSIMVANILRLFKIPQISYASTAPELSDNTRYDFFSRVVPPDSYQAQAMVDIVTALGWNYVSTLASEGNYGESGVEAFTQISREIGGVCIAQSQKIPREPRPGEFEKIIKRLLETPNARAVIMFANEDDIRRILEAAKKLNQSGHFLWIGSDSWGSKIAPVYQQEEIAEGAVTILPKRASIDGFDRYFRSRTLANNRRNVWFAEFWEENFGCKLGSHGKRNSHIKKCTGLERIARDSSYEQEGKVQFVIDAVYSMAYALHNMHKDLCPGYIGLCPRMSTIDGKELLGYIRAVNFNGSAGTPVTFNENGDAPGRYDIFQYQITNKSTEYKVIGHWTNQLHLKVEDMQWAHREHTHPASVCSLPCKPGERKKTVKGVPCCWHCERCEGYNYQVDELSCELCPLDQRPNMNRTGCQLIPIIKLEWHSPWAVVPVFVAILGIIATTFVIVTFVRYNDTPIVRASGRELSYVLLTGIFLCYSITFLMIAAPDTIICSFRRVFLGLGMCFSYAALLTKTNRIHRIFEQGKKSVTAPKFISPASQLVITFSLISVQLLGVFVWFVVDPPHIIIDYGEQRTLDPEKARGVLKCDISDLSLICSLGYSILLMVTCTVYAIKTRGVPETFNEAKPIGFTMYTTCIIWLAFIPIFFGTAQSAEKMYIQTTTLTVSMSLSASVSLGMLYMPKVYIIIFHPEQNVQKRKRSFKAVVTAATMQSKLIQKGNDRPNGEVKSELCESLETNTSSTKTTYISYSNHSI

[12] = tested on: Schaffer collateral-CA1 (SC-CA1) synapse (mGluR7); assay: Hippocampal field recordings (fEPSPs), SC-CA1 synapse; set-up: species or system rat; details: submaximal L-AP4; fEPSP slope
[13] = tested on: any other mGluR subtype; assay: FLIPR Ca2+ flux assay, other mGluR subtypes (activation or potentiation); type: cell-based; details: 10 μM

Compound | effect on the response of mGluR4 to agonists (potentiation) ([1]; concentrations up to 30 μM) | IC50 ([1]; read-out: mGluR4 antagonist IC50, at higher concentrations) [µM] | locomotor activity (reversal of reserpine-induced akinesia) [2] | effect on striato-pallidal transmission, compound alone [3] | EC50 ([4]; with 10 μM PHCCC) [µM] | EC50 ([4]; without PHCCC) [µM] | EC50 ([5]; in the absence of PHCCC) [µM] | EC50 ([5]; with 10 μM PHCCC) [µM] | increase of the maximal effect of L-AP4 [6] | block of response of mGluR5a to glutamate [7] | effect on striato-pallidal transmission, co-application with L-AP4 ([3]; 30 μM PHCCC and 1 μM L-AP4, p<0.01, n=4) | effect on L-AP4-induced inhibition of transmission at LPP-DG synapse [8] | block of response of mGluR1b to glutamate [9] | block of response of mGluR2 to glutamate [10] | block of response of mGluR8 to glutamate [11] | effect on L-AP4-induced inhibition of transmission at SC-CA1 synapse [12] | activation or potentiation of responses of other mGluR subtypes [13]
7-(hydroxylimino)cyclopropa[b]chromen-1a-carboxamide ethyl ester [CPCCOEt] | no mGluR4 potentiator activity; also recorded: did not have any effect | > 100 | no effect |  |  |  |  |  |  |  |  |  |  |  |  |  | 
NC(CCP(=O)(O)O)C(=O)O [L-AP4] |  |  |  | small but significant inhibition | 0.0676 ± 0.0052 | 0.832 ± 0.1 | 0.484 ± 0.045 | 0.0714 ± 0.0029 |  |  |  |  |  |  |  |  | 
N-phenyl-7-(hydroxylimino)cyclopropa[b]chromen-1a-carboxamide [PHCCC] |  |  | overcome inhibition of movement; also recorded: significant increase in locomotor activity | no effect |  |  |  |  | approximately two-fold | partially blocked | potentiate the effect of the mGluR4 agonist L-AP4 in inhibiting transmission; also recorded: marked inhibition | no significant effect | partially blocked | partially blocked | partially blocked | no significant effect | does not potentiate or activate any other mGluR subtype; also recorded: did not activate or potentiate
